Assay [1] has as its system E. coli Nissle L36/L31 ribosomal accessory protein promoter (ykgMO) GFP biosensor. Description: Induction of promoter-GFP biosensor, GFP by flow cytometry. Format: cell-based, Escherichia coli. The text has this: (§1) Initial Data. […] Sequences were obtained via Illumina NextSeq and mapped against E. coli Nissle 1917 reference genome.
(§2) Initial test constructs consisted of the intergenic promoter regions for the following genes: E. coli Nissle—sulA, entCE (enterobactin synthase operon), ykgMO (paralog for L36/L31 ribosomal accessory protein), ABC Transporter (WP_000977398.1); L. reuteri—ABC Transporter operon (EGC15836.1), Acyl carrier protein dehydratase (EGC15031.1), argininosuccinate lyase (EGC15288.1). Each promoter region was cloned directly upstream of a green fluorescent protein cassette. For L. reuteri, the eGFP cassette was used while the sGFP cassette was used for E. coli. All constructs were assembled via the Gibson Reaction (NEBiosciences).
A general note: Flow cytometry measures light scatter and fluorescence of single cells or particles in a stream.

Assay [2] concerns E. coli Nissle enterobactin synthase promoter GFP biosensor. Described as above. Format: cell-based, Escherichia coli.
From the text: as §1, §2

Assay [3] relates to L. reuteri acyl carrier protein dehydratase promoter GFP biosensor. The description is as above. Format: cell-based, Lactobacillus reuteri. To be noted: co-cultured with TPEN vs uninduced sensor. The protocol:
All constructs were assembled via the Gibson Reaction (NEBiosciences).
All flow runs were performed in 96 well plates.
TPEN Induction—TPEN, a synthetic zinc chelator, induction assays were performed as calprotectin induction, with TPEN replacing calprotectin. Growth condition were also identical. Media ratios differed. In the TPEN studies, 180 uL of media was used with 20 uL cells and 2 uL of TPEN in absolute ethanol.

The subject of assay [4] is L. reuteri ABC transporter promoter GFP biosensor. Description: Metal complementation assay (metal added to sensors co-cultured with calprotectin). Format: cell-based, Lactobacillus reuteri.
Procedure: Metal complementation assays—Mixes were similar to the calprotectin induction assays with the addition of zinc (II) sulfate, manganese (II) sulfate, or iron (II) chloride. Concentrations of metals were added in excess of 1×, 10×, and 100× the binding capacity of 40 ug/mL (1.4 uM) calprotectin. In total, 0, 4 uM, 40 uM, and 400 uM of zinc and iron were added and 0, 2 uM, 20 uM, and 200 uM of manganese was added. Slightly higher than equimolar amounts were added to correct for possible pipetting error. Cells were grown for the same amount of time as in the calprotectin induction assays.
Flow cytometry—˜10-40 uL of cells were added to 1 mL of PBS sheath fluid and run through the flow cytometer for a total of 10000 events. Cells were thresholded by forward/side scatter, and.fsc files were analyzed with the FlowCal software, developed by the Jeff Tabor Lab. In short, FlowCal identifies the densest region of cells on the associated scatterplot, and analyzes the fluorescent output of 30% of the cells in this region so as to evaluate a homogenous dataset and remove possible outliers. […] In this case, GFP output is reported as molecules of equivalent fluorophores (MEF), and was evaluated on the FL1 channel.
In assay [5] the test system is L. reuteri acyl carrier protein dehydratase promoter GFP biosensor. To be noted: co-cultured with 40 ug/mL calprotectin.
The test system of assay [6] is E. coli Nissle L36/L31 ribosomal accessory protein promoter GFP biosensor. To be noted: sensors co-cultured with calprotectin.
For assay [7], the system named is E. coli Nissle enterobactin synthase promoter GFP biosensor.
The subject of assay [8] is Lactobacillus reuteri ABC transporter promoter GFP sensor. To be noted: 40 ug/mL calprotectin vs uninduced sensor.
From the text: as §2

Assay [9] relates to Escherichia coli Nissle 1917. Briefly: Minimum inhibitory concentration (MIC) assay, overnight growth, OD600. The conditions noted are these: E. coli Nissle. Format: cell-based. The method, then:
(§3) Minimum inhibitory concentration (MIC) assay—Escherichia coli Nissle 1917 and Lactobacillus reuteri PTA 6475 were used as vectors for biosensor construction. For both strains, bacteria was grown overnight in media (MRS broth for L. reuteri; LB broth for E. coli). From the overnight culture, 10^4 bacterial cells in 38 uL media (LDM4 for L. reuteri; LB broth for E. coli) were seeded into a 96 well-plate. 62 uL of calprotectin in buffer (20 mM Tris (pH 7.5), 100 mM NaCl, 10 mM beta-mercaptoethanol, 3 mM CaCl2) was added in 2-fold dilutions. Recombinant human calprotectin was supplied by Dr. Walter Chazin of Vanderbilt University. Bacteria was allowed to grow overnight, and OD600 values were taken the following morning.
(§4) RNA Isolation—Sub-inhibitory concentrations of calprotectin were used for the calprotectin induction. […] Cells were grown overnight, and then back-diluted 1:100 into 5 mL of media (LDM4 for L. reuteri; LB Broth for E. coli). Cells were grown up to log phase, and then the sub-inhibitory amount of calprotectin was added to the tube in calprotectin buffer. Growth continued for 30 total minutes in the presence of the calprotectin, and then transcription was frozen by addition of ice cold methanol for L. reuteri and ice-cold ethanol for E. coli Nissle. Cells were collected via centrifugation, and then RNA was isolated using the QIAgen RNEasy kit. Slight modifications were included. For L. reuteri, mechanical cell-wall disruption was used via bead-beating. For E. coli, lysozyme/proteinase K was used to disrupt the gram-negative cell wall. RNA was quantified and tested for purity using a Nanodrop.
(§5) Both prospective vector strains (Lactobacillus reuteri and Escherichia coli Nissle) were grown overnight in the presence of 2-fold dilutions of calprotectin in order to deduce minimum inhibitory concentrations of calprotectin on the microbes.

The subject of assay [10] is Lactobacillus reuteri PTA 6475. The description is as above. To be noted: L. reuteri. Format: cell-based. The protocol: as §3, §4, §5
[11] abbreviates: co-cultured with 1.5 uM TPEN vs media only.
Setting [12] is: co-cultured with 40 ug/mL calprotectin.
[13] abbreviates: 40 ug/mL calprotectin vs un-induced.
Setting [14] is: overnight growth, 2-fold dilutions.

Structures can show the parent of a compound that is named as a salt.

On to `c1ccc(CN(CCN(Cc2ccccn2)Cc2ccccn2)Cc2ccccn2)nc1` [TPEN, N,N,N′,N′-tetrakis(2-pyridinylmethyl)-1,2-ethanediamine], for which the “fold increase in GFP expression” value in assay [1] (setting [11]) is 4.5 fold; in [2] (setting [11]), 5.6 fold; in [3], 2.5 fold.
`[Cl][Fe][Cl]` [iron, iron (II) chloride]: the “iron excess required to turn off promoter activity” value in assay [4] (× the binding capacity of 40 ug/mL calprotectin, possibly a cell survival issue) is given as 100 ×.
For the molecule `O=S(=O)([O-])[O-].[Mn+2]` [manganese, manganese (II) sulfate], the “effect of added manganese on sensor activity” value in [4] (manganese at 100× binding capacity of 40 ug/mL calprotectin) is reported as “did not fully ablate sensor activity”.
In the case of `[Zn+2]` [zinc, zinc (II) sulfate], the “zinc concentration sufficient to totally abolish promoter activity” value in assay [5], in [4] (setting [12]) and in assay [7] (setting [12]) was 4 µM throughout. Also, the “effect of added zinc on calprotectin-induced increase in GFP expression” value in assay [6] and in [7] (sensors co-cultured with calprotectin) was “abolishes the calprotectin-induced increase in GFP expression” in each case.

B1: calprotectin: neutrophil-source antimicrobial peptide heterodimer that sequesters zinc, manganese and iron; recombinant human, supplied by Dr. Walter Chazin (protein, UniProt P05109 1-93; P06702 1-114, looked up)
Protein S100-A8: MLTELEKALNSIIDVYHKYSLIKGNFHAVYRDDLKKLLETECPQYIRKKGADVWFKELDINTDGAVNFQEFLILVIKMGVAAHKKSHEESHKE
Protein S100-A9: MTCKMSQLERNIETIINTFHQYSVKLGHPDTLNQGEFKELVRKDLQNFLKKENKNEKVIEHIMEDLDTNADKQLSFEEFIMLMARLTWASHEKMHEGDEGPGHHHKPGLGEGTP
On to B1, for which the “fold increase in GFP expression” value is listed as 2.6 fold in assay [1] (setting [13]), 1.8 fold in [2] (setting [13]) and 4.93 fold in assay [8]. For the same molecule, the “highest concentration that did not inhibit overnight growth (sub-inhibitory concentration)” value was determined as 125 µg/mL in [9] and 15.625 µg/mL in [10]. Besides, the “minimum inhibitory concentration (growth inhibited at this concentration and above)” value in assay [9] (setting [14]) amounted to 250 µg/mL; in assay [10] (setting [14]), 31.25 µg/mL.

The values are drawn from patent US20250020667A1, “DEVELOPMENT OF MICROBIAL BIOSENSORS FOR INTESTINAL INFLAMMATION” (Baylor College of Medicine, priority 2017, published 2025).
